Laboratory results: PubChem BioAssay AID248 (DTP/NCI, 2004)
Several values for one entry are separate records, joined by “and”; a condition that tells them apart may be missing. Equal entries are not always repeated. Toxic doses and inconclusive results are not listed.

System: L1210 leukemia ip in BDF1 mice, survival T/C
Assay: NCI In Vivo Anticancer Drug Screen. Data for tumor model L1210 Leukemia (intraperitoneal) in B6D2F1 (BDF1) mice
Conditions: endpoint: mean survival time, higher = longer survival
How it was run: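 Each compound was tested against a transplantable tumor grown in mice. The endpoint was survival, with treated animals benchmarked against vehicle controls as a simple ratio.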

[1] = dose: 100.0 mg/kg/injection, schedule: Q04DX003 (ip), vehicle: Klucel (hydroxypropylcellulose) (HPC)
[2] = dose: 200.0 mg/kg/injection, schedule: Q04DX003 (ip), vehicle: Klucel (hydroxypropylcellulose) (HPC)
[3] = dose: 400.0 mg/kg/injection, schedule: Q04DX003 (ip), vehicle: Klucel (hydroxypropylcellulose) (HPC)
[4] = dose: 100.0 mg/kg/injection, schedule: Q01DX009 (ip), vehicle: saline with Tween-80
[5] = dose: 100.0 mg/kg/injection, schedule: Q04DX003 (ip), vehicle: saline with Tween-80
[6] = dose: 200.0 mg/kg/injection, schedule: Q04DX003 (ip), vehicle: saline with Tween-80
[7] = dose: 400.0 mg/kg/injection, schedule: Q04DX003 (ip), vehicle: saline with Tween-80
[8] = dose: 100.0 mg/kg/injection, schedule: Q01DX001 (ip), vehicle: saline
[9] = dose: 200.0 mg/kg/injection, schedule: Q01DX001 (ip), vehicle: saline
[10] = dose: 400.0 mg/kg/injection, schedule: Q01DX001 (ip), vehicle: saline

With `Nc1ccc2nc3ccc(=O)cc-3n(-c3ccccc3)c2c1` the T/C (dose: 0.5 mg/kg/injection, schedule: Q01DX Z (ip), vehicle: methylcellulose (MC)) was 108 % of control, the T/C (dose: 0.9 mg/kg/injection, schedule: Q01DX Z (ip), vehicle: methylcellulose (MC)) was 96 % of control and 103 % of control and the T/C (dose: 1.0 mg/kg/injection, schedule: Q01DX Z (ip), vehicle: methylcellulose (MC)) was 112 % of control. For the same compound, the T/C (dose: 1.4 mg/kg/injection, schedule: Q01DX Z (ip), vehicle: methylcellulose (MC)) was 109 % of control and 110 % of control, the T/C (dose: 2.0 mg/kg/injection, schedule: Q01DX Z (ip), vehicle: methylcellulose (MC)) was 116 % of control and the T/C (dose: 2.1 mg/kg/injection, schedule: Q01DX Z (ip), vehicle: methylcellulose (MC)) was 107 % of control and 119 % of control. The T/C (dose: 3.2 mg/kg/injection, schedule: Q01DX Z (ip), vehicle: methylcellulose (MC)) was 105 % of control and 122 % of control, the T/C (dose: 5.0 mg/kg/injection, schedule: Q01DX001 (ip), vehicle: carboxymethylcellulose (CMC)) was 96 % of control and the T/C (dose: 10.0 mg/kg/injection, schedule: Q01DX001 (ip), vehicle: carboxymethylcellulose (CMC)) was 105 % of control. The T/C (dose: 20.0 mg/kg/injection, schedule: Q01DX001 (ip), vehicle: carboxymethylcellulose (CMC)) was 111 % of control and the T/C (dose: 40.0 mg/kg/injection, schedule: Q01DX001 (ip), vehicle: carboxymethylcellulose (CMC)) was 113 % of control.
With `C=CCc1cc(CN(CCOCC)Cc2cc(CC=C)cc(OC)c2O)c(O)c(OC)c1` the T/C (dose: 12.5 mg/kg/injection, schedule: Q04DX003 (ip), vehicle: Klucel (hydroxypropylcellulose) (HPC)) was 97 % of control, the T/C (dose: 25.0 mg/kg/injection, schedule: Q04DX003 (ip), vehicle: Klucel (hydroxypropylcellulose) (HPC)) was 95 % of control and the T/C (dose: 50.0 mg/kg/injection, schedule: Q04DX003 (ip), vehicle: Klucel (hydroxypropylcellulose) (HPC)) was 94 % of control.
`NC(=O)/C=C\c1csc2ccccc12` was tested, and the T/C (dose: 100.0 mg/kg/injection, schedule: Q01DX001 (ip), vehicle: carboxymethylcellulose (CMC)) was 100 % of control, the T/C (dose: 200.0 mg/kg/injection, schedule: Q01DX001 (ip), vehicle: carboxymethylcellulose (CMC)) was 94 % of control and the T/C (dose: 400.0 mg/kg/injection, schedule: Q01DX001 (ip), vehicle: carboxymethylcellulose (CMC)) was 94 % of control.
`CCOC(=O)C(NC(C)=O)C(=O)OCC` was tested, and the T/C (dose: 100.0 mg/kg/injection, schedule: Q01DX009 (ip), vehicle: Klucel (hydroxypropylcellulose) (HPC)) was 103 % of control, the T/C [1] was 107 % of control and the T/C (dose: 200.0 mg/kg/injection, schedule: Q01DX009 (ip), vehicle: Klucel (hydroxypropylcellulose) (HPC)) was 105 % of control. For the same compound, the T/C [2] was 107 % of control, the T/C (dose: 400.0 mg/kg/injection, schedule: Q01DX009 (ip), vehicle: Klucel (hydroxypropylcellulose) (HPC)) was 107 % of control and the T/C [3] was 106 % of control.
`N#C/C(=C/c1ccnc2ccccc12)c1ccccc1` was tested, and the T/C [1] was 101 % of control, the T/C [2] was 101 % of control and the T/C [3] was 95 % of control.
In the case of `CCCC[As](=O)(O)C(C)C`, the T/C (dose: 1.56 mg/kg/injection, schedule: Q01DX009 (ip), vehicle: saline) is reported as 100 % of control, the T/C (dose: 3.12 mg/kg/injection, schedule: Q01DX009 (ip), vehicle: saline) is reported as 100 % of control and the T/C (dose: 3.12 mg/kg/injection, schedule: Q04DX003 (ip), vehicle: saline) is reported as 112 % of control. The T/C (dose: 6.25 mg/kg/injection, schedule: Q04DX002 (ip), vehicle: saline) was 120 % of control, the T/C (dose: 6.25 mg/kg/injection, schedule: Q04DX003 (ip), vehicle: saline) was 107 % of control and the T/C (dose: 12.5 mg/kg/injection, schedule: Q01DX001 (ip), vehicle: saline) was 112 % of control. The T/C (dose: 12.5 mg/kg/injection, schedule: Q04DX002 (ip), vehicle: saline) was 110 % of control, the T/C (dose: 12.5 mg/kg/injection, schedule: Q04DX003 (ip), vehicle: saline) was 118 % of control and the T/C (dose: 25.0 mg/kg/injection, schedule: Q01DX001 (ip), vehicle: saline) was 117 % of control. The T/C (dose: 25.0 mg/kg/injection, schedule: Q01DX009 (ip), vehicle: saline) was 106 % of control and 111 % of control, the T/C (dose: 25.0 mg/kg/injection, schedule: Q04DX003 (ip), vehicle: saline) was 105 % of control and the T/C (dose: 50.0 mg/kg/injection, schedule: Q01DX001 (ip), vehicle: saline) was 103 % of control. The T/C (dose: 50.0 mg/kg/injection, schedule: Q04DX002 (ip), vehicle: saline) was 117 % of control.
In the case of `CN(C(N)=O)c1c(O)nc(N)[nH]c1=O`, the T/C (dose: 25.0 mg/kg/injection, schedule: Q01DX009 (ip), vehicle: water) is reported as 98 % of control, the T/C (dose: 50.0 mg/kg/injection, schedule: Q01DX009 (ip), vehicle: water) is reported as 98 % of control and the T/C (dose: 50.0 mg/kg/injection, schedule: Q04DX003 (ip), vehicle: water) is reported as 108 % of control. For the same compound, the T/C (dose: 100.0 mg/kg/injection, schedule: Q01DX009 (ip), vehicle: water) was 102 % of control, the T/C (dose: 100.0 mg/kg/injection, schedule: Q04DX003 (ip), vehicle: water) was 97 % of control and the T/C (dose: 150.0 mg/kg/injection, schedule: Q01DX009 (ip), vehicle: water) was 105 % of control. For the same compound, the T/C (dose: 200.0 mg/kg/injection, schedule: Q04DX003 (ip), vehicle: water) was 90 % of control.
In the case of `Nc1cnccc1N1CCN(c2cccc3ccccc23)CC1`, the T/C (dose: 44.0 mg/kg/injection, schedule: Q01DX009 (ip), vehicle: saline with Tween-80) is reported as 98 % of control, the T/C (dose: 67.0 mg/kg/injection, schedule: Q01DX009 (ip), vehicle: saline with Tween-80) is reported as 93 % of control and the T/C [4] is reported as 155 % of control. The T/C [5] was 98 % of control, the T/C [6] was 96 % of control and the T/C [7] was 89 % of control.
`Cc1ccc(S(=O)(=O)CC#CCOc2ccccc2)cc1` was tested, and the T/C (dose: 50.0 mg/kg/injection, schedule: Q01DX009 (ip), vehicle: saline) was 92 % of control, the T/C [8] was 92 % of control and the T/C (dose: 100.0 mg/kg/injection, schedule: Q01DX009 (ip), vehicle: saline) was 105 % of control. The T/C [9] was 97 % of control, the T/C (dose: 200.0 mg/kg/injection, schedule: Q01DX009 (ip), vehicle: saline) was 92 % of control and the T/C [10] was 101 % of control.
For `CCC(CC)NCC(C)O` (stereo not given), the T/C (dose: 75.0 mg/kg/injection, schedule: Q01DX001 (ip), vehicle: saline) was 105 % of control, the T/C (dose: 150.0 mg/kg/injection, schedule: Q01DX001 (ip), vehicle: saline) was 108 % of control and the T/C (dose: 300.0 mg/kg/injection, schedule: Q01DX001 (ip), vehicle: saline) was 102 % of control.
With `CC1(C)/C(=C\C(=O)O)C2C=CC1C2` (stereo not given) the T/C [8] was 94 % of control, the T/C (dose: 100.0 mg/kg/injection, schedule: Q01DX009 (ip), vehicle: acetone) was 86 % of control and the T/C (dose: 100.0 mg/kg/injection, schedule: Q04DX003 (ip), vehicle: saline) was 114 % of control. The T/C [9] was 101 % of control, the T/C (dose: 200.0 mg/kg/injection, schedule: Q01DX009 (ip), vehicle: acetone) was 91 % of control and the T/C (dose: 200.0 mg/kg/injection, schedule: Q04DX003 (ip), vehicle: saline) was 106 % of control. For the same compound, the T/C [10] was 100 % of control and the T/C (dose: 400.0 mg/kg/injection, schedule: Q04DX003 (ip), vehicle: saline) was 102 % of control.
For `Nc1nc(Nc2cccc(Cl)c2)cc(=O)[nH]1`, the T/C (dose: 100.0 mg/kg/injection, schedule: Q01DX Z (ip), vehicle: methylcellulose (MC)) was 90 % of control and the T/C (dose: 200.0 mg/kg/injection, schedule: Q01DX Z (ip), vehicle: methylcellulose (MC)) was 99 % of control.
In the case of `O=C1C2C(C(=O)N1c1cccc3ccccc13)C1(Cl)C(Cl)=C(Cl)C2(Cl)C1(Cl)Cl` (stereo not given), the T/C (dose: 12.5 mg/kg/injection, schedule: Q01DX009 (ip), vehicle: Klucel (hydroxypropylcellulose) (HPC)) is reported as 103 % of control, the T/C (dose: 25.0 mg/kg/injection, schedule: Q01DX009 (ip), vehicle: Klucel (hydroxypropylcellulose) (HPC)) is reported as 104 % of control and the T/C (dose: 50.0 mg/kg/injection, schedule: Q01DX009 (ip), vehicle: Klucel (hydroxypropylcellulose) (HPC)) is reported as 96 % of control.
With `COc1cc(/C=C2\CN(C)C(=O)C2=O)ccc1O` the T/C [4] was 101 % of control, the T/C [5] was 105 % of control and the T/C (dose: 200.0 mg/kg/injection, schedule: Q01DX009 (ip), vehicle: saline with Tween-80) was 100 % of control. For the same compound, the T/C [6] was 98 % of control, the T/C (dose: 400.0 mg/kg/injection, schedule: Q01DX009 (ip), vehicle: saline with Tween-80) was 101 % of control and the T/C [7] was 96 % of control.
